From publication PMC5869712 (Scientific Reports, 2018)

Experiments:
Test in all cases: Eurofins Kinase Profiler panel
Format in all cases: biochemical
TBK1 = target: T1, TBK1 (Homo sapiens, UniProt Q9UHD2); conditions: read-out: % inhibition (1μM), DMSO control=100%, lower=stronger
T1 construct: purchased Eurofins Pharma Discovery Services UK Limited (Kinase Profiler screening platform)
From the text: (§1) The assay protocol guides are commercially available from ChemPartner.

SAPK2a = target: T2, SAPK2a (Homo sapiens, UniProt Q16539); conditions: read-out: % inhibition (1μM), DMSO control=100%, lower=stronger
T2 construct: purchased Eurofins KinaseProfiler (Eurofins Pharma Discovery Services UK, Dundee); JAK3 also ChemPartner
From the text: as §1

SGK = target: T3, SGK (Homo sapiens, UniProt O00141); conditions: read-out: % inhibition (1μM), DMSO control=100%, lower=stronger
T3 construct: purchased Eurofins KinaseProfiler (Eurofins Pharma Discovery Services UK, Dundee); JAK3 also ChemPartner
From the text: as §1

DDR1 = target: T4, DDR1 (Homo sapiens, UniProt Q08345); conditions: read-out: % inhibition (1μM), DMSO control=100%, lower=stronger
T4 construct: purchased Eurofins KinaseProfiler (Eurofins Pharma Discovery Services UK, Dundee); JAK3 also ChemPartner
From the text: as §1

Ret = target: T5, Ret (Homo sapiens, UniProt P07949); conditions: read-out: % inhibition (1μM), DMSO control=100%, lower=stronger
T5 construct: purchased Eurofins KinaseProfiler (Eurofins Pharma Discovery Services UK, Dundee); JAK3 also ChemPartner
From the text: as §1

PDGFRα = target: T6, PDGFRα (Homo sapiens, UniProt P16234); conditions: read-out: % inhibition (1μM), DMSO control=100%, lower=stronger
T6 construct: purchased Eurofins Pharma Discovery Services UK Limited (Kinase Profiler screening platform)
From the text: as §1

TrkC = target: T7, TrkC (Homo sapiens, UniProt Q16288); conditions: read-out: % inhibition (1μM), DMSO control=100%, lower=stronger
T7 construct: purchased Eurofins Pharma Discovery Services UK Limited (Kinase Profiler screening platform)
From the text: as §1

SAPK2b = target: T8, SAPK2b (Homo sapiens, UniProt Q15759); conditions: read-out: % inhibition (1μM), DMSO control=100%, lower=stronger
T8 construct: purchased Eurofins KinaseProfiler (Eurofins Pharma Discovery Services UK, Dundee); JAK3 also ChemPartner
From the text: as §1

PKBα = target: T9, PKBα (Homo sapiens, UniProt P31749); conditions: read-out: % inhibition (1μM), DMSO control=100%, lower=stronger
T9 construct: purchased Eurofins KinaseProfiler (Eurofins Pharma Discovery Services UK, Dundee); JAK3 also ChemPartner
From the text: as §1

CDK7 = target: T10, CDK7 (Homo sapiens, UniProt P50613); conditions: read-out: % inhibition (1μM), DMSO control=100%, lower=stronger
T10 construct: purchased Eurofins KinaseProfiler (Eurofins Pharma Discovery Services UK, Dundee); JAK3 also ChemPartner
From the text: as §1

PKG1α = target: T11, PKG1α (Homo sapiens, UniProt Q13976)
T11 construct: Eurofins Pharma Discovery Services UK Limited (Kinase Profiler service)
From the text: as §1

MSK1 = target: T12, MSK1 (Homo sapiens, UniProt O75582); conditions: read-out: % inhibition (1μM), DMSO control=100%, lower=stronger
T12 construct: purchased Eurofins Pharma Discovery Services UK Limited (Kinase Profiler screening platform)
From the text: as §1

PKA = target: T13, PKA (Homo sapiens, UniProt P17612); conditions: read-out: % inhibition (1μM), DMSO control=100%, lower=stronger
T13 construct: purchased Eurofins KinaseProfiler (Eurofins Pharma Discovery Services UK, Dundee); JAK3 also ChemPartner
From the text: as §1

Pim-2 = target: T14, Pim-2 (Homo sapiens, UniProt Q9P1W9); conditions: read-out: % inhibition (1μM), DMSO control=100%, lower=stronger
T14 construct: purchased Eurofins KinaseProfiler (Eurofins Pharma Discovery Services UK, Dundee); JAK3 also ChemPartner
From the text: as §1

CaMKIIβ = target: T15, CaMKIIβ (Homo sapiens, UniProt Q13554); conditions: read-out: % inhibition (1μM), DMSO control=100%, lower=stronger
T15 construct: purchased Eurofins KinaseProfiler (Eurofins Pharma Discovery Services UK, Dundee); JAK3 also ChemPartner
From the text: as §1

TAO1 = target: T16, TAO1 (Homo sapiens, UniProt Q7L7X3); conditions: read-out: % inhibition (1μM), DMSO control=100%, lower=stronger
T16 construct: Eurofins Pharma Discovery Services UK Limited (Kinase Profiler service)
From the text: as §1

SAPK3 = target: T17, SAPK3 (Homo sapiens, UniProt P53778); conditions: read-out: % inhibition (1μM), DMSO control=100%, lower=stronger
T17 construct: purchased Eurofins KinaseProfiler (Eurofins Pharma Discovery Services UK, Dundee); JAK3 also ChemPartner
From the text: as §1

Pim-1 = target: T18, Pim-1 (Homo sapiens, UniProt P11309); conditions: read-out: % inhibition (1μM), DMSO control=100%, lower=stronger
T18 construct: purchased Eurofins Pharma Discovery Services UK Limited (Kinase Profiler screening platform)
From the text: as §1

CaMKK2 = target: T19, CaMKK2 (Homo sapiens, UniProt Q96RR4); conditions: read-out: % inhibition (1μM), DMSO control=100%, lower=stronger
T19 construct: purchased Eurofins KinaseProfiler (Eurofins Pharma Discovery Services UK, Dundee); JAK3 also ChemPartner
From the text: as §1

CaMKI = target: T20, CaMKI (Homo sapiens, UniProt Q14012); conditions: read-out: % inhibition (1μM), DMSO control=100%, lower=stronger
T20 construct: purchased Eurofins KinaseProfiler (Eurofins Pharma Discovery Services UK, Dundee); JAK3 also ChemPartner
From the text: as §1

CDK6 = target: T21, CDK6 (Homo sapiens, UniProt Q00534); conditions: read-out: % inhibition (1μM), DMSO control=100%, lower=stronger
T21 construct: purchased Eurofins KinaseProfiler (Eurofins Pharma Discovery Services UK, Dundee); JAK3 also ChemPartner
From the text: as §1

CDK9 = target: T22, CDK9 (Homo sapiens, UniProt P50750); conditions: read-out: % inhibition (1μM), DMSO control=100%, lower=stronger
T22 construct: purchased Eurofins KinaseProfiler (Eurofins Pharma Discovery Services UK, Dundee); JAK3 also ChemPartner
From the text: as §1

DYRK1B = target: T23, DYRK1B (Homo sapiens, UniProt Q9Y463); conditions: read-out: % inhibition (1μM), DMSO control=100%, lower=stronger
T23 construct: Eurofins Pharma Discovery Services UK Limited (Kinase Profiler service)
From the text: as §1

ZIPK = target: T24, ZIPK (Homo sapiens, UniProt O43293); conditions: read-out: % inhibition (1μM), DMSO control=100%, lower=stronger
T24 construct: purchased Eurofins Pharma Discovery Services UK Limited (Kinase Profiler screening platform)
From the text: as §1

ROCK-I = target: T25, ROCK-I (Homo sapiens, UniProt Q13464); conditions: read-out: % inhibition (1μM), DMSO control=100%, lower=stronger
T25 construct: purchased Eurofins KinaseProfiler (Eurofins Pharma Discovery Services UK, Dundee); JAK3 also ChemPartner
From the text: as §1

Flt1 = target: T26, Flt1 (Homo sapiens, UniProt P17948); conditions: read-out: % inhibition (1μM), DMSO control=100%, lower=stronger
T26 construct: purchased Eurofins Pharma Discovery Services UK Limited (Kinase Profiler screening platform)
From the text: as §1

NEK2 = target: T27, NEK2 (Homo sapiens, UniProt P51955); conditions: read-out: % inhibition (1μM), DMSO control=100%, lower=stronger
T27 construct: purchased Eurofins Pharma Discovery Services UK Limited (Kinase Profiler screening platform)
From the text: as §1

PKCθ = target: T28, PKCθ (Homo sapiens, UniProt Q04759); conditions: read-out: % inhibition (1μM), DMSO control=100%, lower=stronger
T28 construct: purchased Eurofins KinaseProfiler (Eurofins Pharma Discovery Services UK, Dundee); JAK3 also ChemPartner
From the text: as §1

TrkB = target: T29, TrkB (Homo sapiens, UniProt Q16620); conditions: read-out: % inhibition (1μM), DMSO control=100%, lower=stronger
T29 construct: purchased Eurofins Pharma Discovery Services UK Limited (Kinase Profiler screening platform)
From the text: as §1

Wee1 = target: T30, Wee1 (Homo sapiens, UniProt P30291); conditions: read-out: % inhibition (1μM), DMSO control=100%, lower=stronger
T30 construct: purchased Eurofins Pharma Discovery Services UK Limited (Kinase Profiler screening platform)
From the text: as §1

STK33 = target: T31, STK33 (Homo sapiens, UniProt Q9BYT3); conditions: read-out: % inhibition (1μM), DMSO control=100%, lower=stronger
T31 construct: purchased Eurofins KinaseProfiler (Eurofins Pharma Discovery Services UK, Dundee); JAK3 also ChemPartner
From the text: as §1

SAPK4 = target: T32, SAPK4 (Homo sapiens, UniProt O15264); conditions: read-out: % inhibition (1μM), DMSO control=100%, lower=stronger
T32 construct: purchased Eurofins KinaseProfiler (Eurofins Pharma Discovery Services UK, Dundee); JAK3 also ChemPartner
From the text: as §1

TrkA = target: T33, TrkA (Homo sapiens, UniProt P04629); conditions: read-out: % inhibition (1μM), DMSO control=100%, lower=stronger
T33 construct: purchased Eurofins Pharma Discovery Services UK Limited (Kinase Profiler screening platform)
From the text: as §1

ROCK-II = target: T34, ROCK-II (Homo sapiens, UniProt O75116); conditions: read-out: % inhibition (1μM), DMSO control=100%, lower=stronger
T34 construct: purchased Eurofins KinaseProfiler (Eurofins Pharma Discovery Services UK, Dundee); JAK3 also ChemPartner
From the text: as §1

CK1 = conditions: read-out: % inhibition (1μM), DMSO control=100%, lower=stronger
From the text: as §1

PRK2 = target: T35, PRK2 (Homo sapiens, UniProt Q16513); conditions: read-out: % inhibition (1μM), DMSO control=100%, lower=stronger
T35 construct: purchased Eurofins KinaseProfiler (Eurofins Pharma Discovery Services UK, Dundee); JAK3 also ChemPartner
From the text: as §1

GSK3α = target: T36, GSK3α (Homo sapiens, UniProt P49840); conditions: read-out: % inhibition (1μM), DMSO control=100%, lower=stronger
T36 construct: purchased Eurofins KinaseProfiler (Eurofins Pharma Discovery Services UK, Dundee); JAK3 also ChemPartner
From the text: as §1

CLK2 = target: T37, CLK2 (Homo sapiens, UniProt P49760)
T37 construct: Eurofins Pharma Discovery Services UK Limited (Kinase Profiler service)
From the text: as §1

Syk = target: T38, Syk (Homo sapiens, UniProt P43405); conditions: read-out: % inhibition (1μM), DMSO control=100%, lower=stronger
T38 construct: Eurofins Pharma Discovery Services UK Limited (Kinase Profiler service)
From the text: as §1

Src = target: T39, Src (Homo sapiens, UniProt P12931); conditions: read-out: % inhibition (1μM), DMSO control=100%, lower=stronger
T39 construct: purchased Eurofins KinaseProfiler (Eurofins Pharma Discovery Services UK, Dundee); JAK3 also ChemPartner
From the text: as §1

Mer = target: T40, Mer (Homo sapiens, UniProt Q12866); conditions: read-out: % inhibition (1μM), DMSO control=100%, lower=stronger
T40 construct: purchased Eurofins KinaseProfiler (Eurofins Pharma Discovery Services UK, Dundee); JAK3 also ChemPartner
From the text: as §1

DYRK1A = target: T41, DYRK1A (Homo sapiens, UniProt Q13627); conditions: read-out: % inhibition (1μM), DMSO control=100%, lower=stronger
T41 construct: purchased Eurofins KinaseProfiler (Eurofins Pharma Discovery Services UK, Dundee); JAK3 also ChemPartner
From the text: as §1

Rsk2 = target: T42, Rsk2 (Homo sapiens, UniProt P51812); conditions: read-out: % inhibition (1μM), DMSO control=100%, lower=stronger
T42 construct: purchased Eurofins KinaseProfiler (Eurofins Pharma Discovery Services UK, Dundee); JAK3 also ChemPartner
From the text: as §1

[1] = read-out: % inhibition (1μM), 1 µM, DMSO control=100%, lower=stronger

T37 sequence (P49760 whole entry): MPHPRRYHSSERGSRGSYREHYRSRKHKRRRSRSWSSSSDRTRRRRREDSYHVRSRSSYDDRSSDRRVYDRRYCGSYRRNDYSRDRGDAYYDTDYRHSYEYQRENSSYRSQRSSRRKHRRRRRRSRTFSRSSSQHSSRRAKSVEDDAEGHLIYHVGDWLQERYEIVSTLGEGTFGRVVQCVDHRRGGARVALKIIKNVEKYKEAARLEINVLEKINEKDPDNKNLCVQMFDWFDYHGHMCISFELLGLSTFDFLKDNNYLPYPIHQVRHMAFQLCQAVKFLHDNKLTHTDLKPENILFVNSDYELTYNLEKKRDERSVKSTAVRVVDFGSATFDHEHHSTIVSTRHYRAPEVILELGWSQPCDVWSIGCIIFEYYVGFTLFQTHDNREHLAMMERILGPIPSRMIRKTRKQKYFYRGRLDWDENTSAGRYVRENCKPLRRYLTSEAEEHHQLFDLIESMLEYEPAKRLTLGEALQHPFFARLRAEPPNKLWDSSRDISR
T11 sequence (Q13976 whole entry): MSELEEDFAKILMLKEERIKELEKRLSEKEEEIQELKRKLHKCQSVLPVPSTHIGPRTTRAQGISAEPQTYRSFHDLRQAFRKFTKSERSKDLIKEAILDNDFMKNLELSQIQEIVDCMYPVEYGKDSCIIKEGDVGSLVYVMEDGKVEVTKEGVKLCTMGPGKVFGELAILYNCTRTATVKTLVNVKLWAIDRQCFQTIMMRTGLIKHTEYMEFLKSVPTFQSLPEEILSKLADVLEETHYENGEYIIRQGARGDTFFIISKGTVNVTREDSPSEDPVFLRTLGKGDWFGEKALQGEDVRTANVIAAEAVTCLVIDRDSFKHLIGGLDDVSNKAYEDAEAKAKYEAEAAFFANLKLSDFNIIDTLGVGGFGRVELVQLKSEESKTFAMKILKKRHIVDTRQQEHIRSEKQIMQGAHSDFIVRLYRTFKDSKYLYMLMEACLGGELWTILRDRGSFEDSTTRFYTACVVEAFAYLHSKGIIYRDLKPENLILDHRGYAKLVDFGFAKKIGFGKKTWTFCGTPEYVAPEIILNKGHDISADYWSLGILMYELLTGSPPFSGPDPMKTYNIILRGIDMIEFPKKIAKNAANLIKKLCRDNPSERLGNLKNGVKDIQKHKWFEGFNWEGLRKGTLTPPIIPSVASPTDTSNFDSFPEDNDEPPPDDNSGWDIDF
T40 sequence (Q12866 21-999): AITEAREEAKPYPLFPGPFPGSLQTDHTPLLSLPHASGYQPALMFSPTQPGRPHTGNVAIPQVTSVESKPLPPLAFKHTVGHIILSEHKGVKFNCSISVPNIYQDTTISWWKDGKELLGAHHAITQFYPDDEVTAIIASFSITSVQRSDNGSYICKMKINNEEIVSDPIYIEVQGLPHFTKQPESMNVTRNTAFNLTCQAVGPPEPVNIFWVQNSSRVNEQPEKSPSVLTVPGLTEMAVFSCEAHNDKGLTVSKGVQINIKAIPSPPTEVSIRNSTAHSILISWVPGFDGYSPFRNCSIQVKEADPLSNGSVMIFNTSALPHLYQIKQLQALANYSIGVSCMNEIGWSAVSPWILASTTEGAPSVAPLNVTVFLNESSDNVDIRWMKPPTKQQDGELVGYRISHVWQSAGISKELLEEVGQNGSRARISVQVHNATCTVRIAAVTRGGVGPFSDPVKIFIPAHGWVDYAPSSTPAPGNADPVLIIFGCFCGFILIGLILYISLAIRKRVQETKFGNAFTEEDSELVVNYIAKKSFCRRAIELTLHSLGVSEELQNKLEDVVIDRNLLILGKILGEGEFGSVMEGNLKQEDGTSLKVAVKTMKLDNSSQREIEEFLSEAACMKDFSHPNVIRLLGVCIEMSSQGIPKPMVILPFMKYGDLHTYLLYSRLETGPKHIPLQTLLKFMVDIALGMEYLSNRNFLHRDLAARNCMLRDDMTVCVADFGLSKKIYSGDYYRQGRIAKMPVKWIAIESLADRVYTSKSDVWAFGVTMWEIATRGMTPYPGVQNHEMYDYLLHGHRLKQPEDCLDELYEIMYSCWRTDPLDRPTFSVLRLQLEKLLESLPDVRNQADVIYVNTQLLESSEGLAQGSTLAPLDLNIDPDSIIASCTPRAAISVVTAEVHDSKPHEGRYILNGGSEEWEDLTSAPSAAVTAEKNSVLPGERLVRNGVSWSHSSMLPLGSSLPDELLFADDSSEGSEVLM
T8 sequence (Q15759 whole entry): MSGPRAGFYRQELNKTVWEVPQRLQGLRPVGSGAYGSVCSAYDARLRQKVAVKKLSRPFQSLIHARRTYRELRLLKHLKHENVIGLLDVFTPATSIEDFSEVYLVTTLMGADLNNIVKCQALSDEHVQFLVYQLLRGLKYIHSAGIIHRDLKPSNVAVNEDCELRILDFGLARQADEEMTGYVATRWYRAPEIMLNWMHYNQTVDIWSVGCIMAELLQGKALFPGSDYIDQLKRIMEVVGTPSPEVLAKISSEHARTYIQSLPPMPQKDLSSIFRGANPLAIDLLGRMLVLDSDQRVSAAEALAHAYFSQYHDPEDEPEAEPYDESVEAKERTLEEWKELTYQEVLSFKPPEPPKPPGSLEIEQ
T42 sequence (P51812 whole entry): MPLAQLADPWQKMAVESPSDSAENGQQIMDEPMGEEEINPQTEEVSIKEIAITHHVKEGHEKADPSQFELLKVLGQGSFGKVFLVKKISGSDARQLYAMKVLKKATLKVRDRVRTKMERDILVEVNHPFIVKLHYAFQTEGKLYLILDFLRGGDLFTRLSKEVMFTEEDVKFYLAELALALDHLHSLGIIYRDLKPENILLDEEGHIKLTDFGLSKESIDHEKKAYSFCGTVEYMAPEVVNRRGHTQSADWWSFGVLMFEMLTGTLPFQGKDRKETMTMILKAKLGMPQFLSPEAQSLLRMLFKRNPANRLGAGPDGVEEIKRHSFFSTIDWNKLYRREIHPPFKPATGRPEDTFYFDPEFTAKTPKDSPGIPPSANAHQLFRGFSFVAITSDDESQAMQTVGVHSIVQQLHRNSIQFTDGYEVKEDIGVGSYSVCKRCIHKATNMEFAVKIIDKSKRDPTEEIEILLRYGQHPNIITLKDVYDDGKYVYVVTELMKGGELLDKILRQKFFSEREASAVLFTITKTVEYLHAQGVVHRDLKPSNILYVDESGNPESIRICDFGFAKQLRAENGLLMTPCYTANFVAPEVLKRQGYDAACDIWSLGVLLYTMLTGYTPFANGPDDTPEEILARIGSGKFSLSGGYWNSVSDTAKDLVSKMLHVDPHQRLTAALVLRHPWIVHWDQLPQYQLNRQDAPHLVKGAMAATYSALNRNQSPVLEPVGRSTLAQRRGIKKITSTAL
T7 sequence (Q16288 32-839): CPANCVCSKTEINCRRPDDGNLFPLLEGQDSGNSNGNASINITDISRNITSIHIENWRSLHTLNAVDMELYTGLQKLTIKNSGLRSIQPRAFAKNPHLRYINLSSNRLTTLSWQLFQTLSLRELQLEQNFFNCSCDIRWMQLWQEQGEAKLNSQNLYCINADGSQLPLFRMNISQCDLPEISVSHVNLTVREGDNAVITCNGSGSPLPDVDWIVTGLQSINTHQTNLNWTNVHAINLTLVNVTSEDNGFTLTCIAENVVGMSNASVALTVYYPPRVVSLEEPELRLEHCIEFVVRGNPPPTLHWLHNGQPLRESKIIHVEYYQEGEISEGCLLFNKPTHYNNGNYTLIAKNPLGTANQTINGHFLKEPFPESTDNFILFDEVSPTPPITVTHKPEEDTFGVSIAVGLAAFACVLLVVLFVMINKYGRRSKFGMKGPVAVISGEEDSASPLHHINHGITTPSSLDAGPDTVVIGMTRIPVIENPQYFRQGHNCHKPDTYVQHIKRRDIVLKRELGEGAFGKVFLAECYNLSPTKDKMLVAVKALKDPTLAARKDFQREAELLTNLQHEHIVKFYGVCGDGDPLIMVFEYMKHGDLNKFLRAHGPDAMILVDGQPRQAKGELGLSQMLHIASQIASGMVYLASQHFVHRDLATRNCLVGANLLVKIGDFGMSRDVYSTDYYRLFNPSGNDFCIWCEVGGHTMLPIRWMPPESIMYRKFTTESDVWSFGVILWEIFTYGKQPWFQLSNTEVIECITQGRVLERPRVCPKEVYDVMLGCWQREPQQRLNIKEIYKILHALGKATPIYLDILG
T32 sequence (O15264 whole entry): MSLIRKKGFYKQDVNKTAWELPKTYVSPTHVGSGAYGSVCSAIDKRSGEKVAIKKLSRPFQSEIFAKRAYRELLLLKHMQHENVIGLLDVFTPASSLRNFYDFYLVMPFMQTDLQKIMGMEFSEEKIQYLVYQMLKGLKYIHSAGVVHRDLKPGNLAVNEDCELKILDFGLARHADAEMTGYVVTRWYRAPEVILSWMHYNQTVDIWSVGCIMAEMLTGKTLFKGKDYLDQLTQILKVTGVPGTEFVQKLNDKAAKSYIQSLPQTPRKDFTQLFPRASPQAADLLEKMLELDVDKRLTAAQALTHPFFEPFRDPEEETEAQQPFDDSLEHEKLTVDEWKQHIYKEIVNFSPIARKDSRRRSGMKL
T3 sequence (O00141 whole entry): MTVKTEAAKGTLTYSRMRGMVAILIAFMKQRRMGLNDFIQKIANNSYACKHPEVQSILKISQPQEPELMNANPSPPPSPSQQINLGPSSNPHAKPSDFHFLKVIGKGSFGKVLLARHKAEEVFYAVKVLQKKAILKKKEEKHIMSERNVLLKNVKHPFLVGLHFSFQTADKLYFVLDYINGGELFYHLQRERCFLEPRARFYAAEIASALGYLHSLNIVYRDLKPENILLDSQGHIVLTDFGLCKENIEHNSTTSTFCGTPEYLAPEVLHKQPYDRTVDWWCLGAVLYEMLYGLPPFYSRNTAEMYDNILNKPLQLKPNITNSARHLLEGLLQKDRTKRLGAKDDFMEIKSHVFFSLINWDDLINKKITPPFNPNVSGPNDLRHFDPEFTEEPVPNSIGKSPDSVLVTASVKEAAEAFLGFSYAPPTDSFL

## C=CC(=O)N[C@@H]1CCCN(c2ncnc3[nH]ccc23)C1 [RB1]
TBK1
  activity at 1 µM: 96%
SAPK2a
  activity at 1 µM: 100%
SGK
  activity at 1 µM: 92%
DDR1
  activity at 1 µM: 75%
Ret
  activity at 1 µM: 86%
PDGFRα
  activity at 1 µM: 96%
TrkC
  activity at 1 µM: 75%
SAPK2b
  activity at 1 µM: 103%
PKBα
  activity at 1 µM: 94%
CDK7
  activity at 1 µM: 95%
PKG1α; estimated
  IC50: > 800 nM
PKG1α; [1]
  activity at 1 µM: 23%
MSK1
  activity at 1 µM: 74%
PKA
  activity at 1 µM: 85%
Pim-2
  activity at 1 µM: 98%
CaMKIIβ
  activity at 1 µM: 85%
TAO1
  activity at 1 µM: 70%
SAPK3
  activity at 1 µM: 94%
Pim-1
  activity at 1 µM: 62%
CaMKK2
  activity at 1 µM: 101%
CaMKI
  activity at 1 µM: 96%
CDK6
  activity at 1 µM: 100%
CDK9
  activity at 1 µM: 101%
DYRK1B
  activity at 1 µM: 86%
ZIPK
  activity at 1 µM: 107%
ROCK-I
  activity at 1 µM: 88%
Flt1
  activity at 1 µM: 93%
NEK2
  activity at 1 µM: 99%
PKCθ
  activity at 1 µM: 80%
TrkB
  activity at 1 µM: 38%
Wee1
  activity at 1 µM: 90%
STK33
  activity at 1 µM: 93%
SAPK4
  activity at 1 µM: 95%
TrkA
  activity at 1 µM: 46%
ROCK-II
  activity at 1 µM: 88%
CK1
  activity: 82%
PRK2
  activity at 1 µM: 79%
GSK3α
  activity at 1 µM: 82%
CLK2; estimated
  IC50: > 800 nM
CLK2; [1]
  activity at 1 µM: 18%
Syk
  activity at 1 µM: 104%
Src
  activity at 1 µM: 102%
Mer
  activity at 1 µM: 68%
DYRK1A
  activity at 1 µM: 91%
Rsk2
  activity at 1 µM: 76%
